According to patent publication US9549935B2, “Methods and compositions for treating migraines using noribogaine” (DemeRx, Inc., priority 2014, dated 2017):
“Also recorded” adds a separate entry of the source.

Assays:
[1] = Cold pressor test (analgesic effect) in healthy volunteers; format: in vivo, human; details: 3-60 mg single oral doses vs placebo, 1° C. water
Experimental: Analgesic effect was assessed based on duration of hand immersion in ice water and on visual analog scale (VAS) pain scores upon hand removal from the water bath.
(§1) Safety and tolerability of noribogaine were tested in the group of volunteers from Example 1. Cold pressor testing was conducted in 1° C. water according to the method of Mitchell et al. (J Pain 5:233-237, 2004) pre-dose, 6, 24, 48, 72 and 216 hours post-dosing. Safety evaluations included clinical monitoring, recording of adverse events (AEs), safety laboratory tests, vital signs, ECG telemetry from −2 h to 6 h after dosing, and 12-lead electrocardiograms (ECGs) up to 216 hours post-dosing.

[2] = Serum noribogaine pharmacokinetics in opioid-dependent patients (Phase IB); details: 60, 120, 180 mg cohorts
[3] = Time to resumption of opioid substitution treatment (OST) in opioid-dependent patients; format: in vivo, human
[4] = Opiate withdrawal scales (COWS, SOWS, OOWS) in opioid-dependent patients; format: in vivo, human; details: single 120 mg dose, first six hours following dosing
Experimental: Patients were evaluated based on the Clinical Opiate Withdrawal Scale (COWS), Subjective Opiate Withdrawal Scale (SOWS), and Objective Opiate Withdrawal Scale (OOWS) scoring systems over the period of time between administration of noribogaine (or placebo) until resumption of OST. These scales are outlined in Guidelines for the Psychosocially Assisted Pharmacological Treatment of Opioid Dependence, World Health Organization, Geneva (2009), Annex 10, which is incorporated herein by reference in its entirety. The scales measure the intensity of withdrawal symptoms, based on clinical, subjective, and objective indicia.

[5] = QT interval evaluation in opioid-dependent patients; format: in vivo, human; details: 60, 120, 180 mg, first 24 hours post administration
Experimental: Patients' QT intervals were evaluated at regular time points throughout the study.

[6] = Safety and tolerability in healthy volunteers (adverse events, vital signs, ECG); format: in vivo, human
Experimental: (§2) Pulse oximetry and capnography data were collected continuously using a GE Carescape B650 monitoring system from 2 hours prior to dosing and until six hours after dosing, and thereafter at 12, 24, 48 and 72 hours post-dosing. Additional oximetry data were collected at 120, 168 and 216 hours. Pupillary miosis was assessed by pupillometry. Dark-adapted pupil diameter was measured in triplicate using a Neuroptics PLR-200 pupillometer under standardized light intensity (<5 lux) pre-dose, and at 2, 4, 6, 12, 24, 48, 72, 96, 120, 168 and 216 hours post-dosing.
as §1

[7] = Pupillary miosis assessed by pupillometry in healthy volunteers; format: in vivo, human; details: 3-60 mg single oral doses vs placebo, up to 216 hours, p>0.9
Experimental: as §2
Summary statistics (means, standard deviations, and coefficients of variation) were determined for each dose group for safety laboratory test data, ECG and pharmacokinetic parameters, and pharmacodynamic variables. Categorical variables were analysed using counts and percentages. Dose-proportionality of AUC and Cmax was assessed using linear regression. The effect of dose on pharmacodynamic parameter values over time was assessed using two-factor analysis of variance (ANOVA). Pairwise comparisons (with Tukey-Kramer adjustment) between each dose group to the placebo were conducted at each time point using the least squares estimates obtained from the ANOVA, using SAS Proc Mixed (SAS ver 6.0).

[8] = Treatment emergent adverse events in opioid-dependent participants (Phase IB)
[9] = 3 mg dose group, healthy volunteers
[10] = 10 mg dose group, healthy volunteers
[11] = 30 mg dose group, healthy volunteers

Q: Which “analgesic effect in the cold pressor test (duration of hand immersion, VAS pain scores)” value [1] does the source give for CC[C@H]1CC2C[C@H]3c4[nH]c5ccc(O)cc5c4CCN(C2)C13 [Noribogaine, noribogaine] here?
A: no analgesic effect

Q: And the “dose dependence of maximum serum concentration (Cmax)” value [2]?
A: increased in a dose-dependent manner

Q: And the “average time to resumption of opioids (OST)” value ([3]; single 120 mg dose)?
A: greater than 20 hours

Q: What about the “average time to resumption of opioids (OST)” value ([3]; single 180 mg dose) of the same compound?
A: still longer than untreated patients (7 hours, not shown) or those administered 60 mg noribogaine

Q: And the “withdrawal symptoms (COWS, OOWS, SOWS scores)” value [4]?
A: fewer withdrawal symptoms than the other patients

Q: And the “QT interval prolongation (ΔQTcl)” value [5]?
A: dose-dependent increase in QT interval prolongation

Q: What about the “Adverse events, Mild” value [6, 9] of the same compound?
A: Dizziness; also recorded: Epistaxis; also recorded: Headache; also recorded: Back pain

Q: What about the “Adverse events, Moderate” value [6, 9] of the same compound?
A: Headache

Q: And the “number of adverse events reported” value [6, 9]?
A: five adverse events were reported by two subjects

Q: And the “Adverse events, Mild” value [6, 10]?
A: Headache

Q: What about the “number of adverse events reported” value [6, 10] of the same compound?
A: one adverse event was reported by single subjects

Q: And the “Adverse events, Mild” value [6, 11]?
A: Headache

Q: What about the “number of adverse events reported” value [6, 11] of the same compound?
A: one adverse event was reported by single subjects

Q: And the “changes in oximetry, capnography, respiratory rate” value ([6]; 3-60 mg, healthy volunteers)?
A: no changes in oximetry or capnography, or changes in respiratory rate

Q: And the “changes in vital signs or safety laboratory tests” value ([6]; 3-60 mg, healthy volunteers)?
A: no changes in vital signs or safety laboratory tests of note

Q: What about the “QTcF values >500 msec” value ([6]; 3-60 mg, healthy volunteers, ECG up to 216 hours) of the same compound?
A: no QTcF values >500 msec at any time

Q: And the “intensity of adverse events” value ([6]; all dose groups, healthy volunteers)?
A: mild-moderate intensity

Q: And the “single increase in QTcF” value ([6]; one subject dosed with 10 mg, 24 hours post-dosing)?
A: > 60 ms

Q: And the “pupillary constriction (dark-adapted pupil diameter)” value [7]?
A: no evidence of pupillary constriction

Q: What about the frequency of headaches ([8]; 60 mg treatment group) of the same compound?
A: frequent

Q: And the frequency of headaches ([8]; 120 mg and 180 mg dose groups)?
A: attenuated

Q: And the hallucinatory effects ([8]; 60-180 mg, opioid-dependent participants)?
A: no hallucinatory effects

Q: What about the “Treatment Emergent AE: Catheter Site Infection” value ([8]; single 60 mg dose, N = 6) of the same compound?
A: 0

Q: And the “Treatment Emergent AE: Catheter Site Pain” value ([8]; single 60 mg dose, N = 6)?
A: 0

Q: And the “Treatment Emergent AE: Catheter Site Related Reaction” value ([8]; single 60 mg dose, N = 6)?
A: 0

Q: And the “Treatment Emergent AE: Cellulitis” value ([8]; single 60 mg dose, N = 6)?
A: 0

Q: And the “Treatment Emergent AE: Diarrhoea” value ([8]; single 60 mg dose, N = 6)?
A: 0

Q: What about the “Treatment Emergent AE: Dry Mouth” value ([8]; single 60 mg dose, N = 6) of the same compound?
A: 0

Q: What about the “Treatment Emergent AE: Ear and Labyrinth Disorders” value ([8]; single 60 mg dose, N = 6) of the same compound?
A: 0

Q: What about the “Treatment Emergent AE: Epistaxis” value ([8]; single 60 mg dose, N = 6) of the same compound?
A: 0

Q: What about the “Treatment Emergent AE: Euphoric Mood” value ([8]; single 60 mg dose, N = 6) of the same compound?
A: 0

Q: What about the “Treatment Emergent AE: General Disorders and Administration Site Conditions” value ([8]; single 60 mg dose, N = 6) of the same compound?
A: 0

Q: What about the “Treatment Emergent AE: Hyperaesthesia” value ([8]; single 60 mg dose, N = 6) of the same compound?
A: 0

Q: And the “Treatment Emergent AE: Infections and Infestations” value ([8]; single 60 mg dose, N = 6)?
A: 0

Q: And the “Treatment Emergent AE: Limb Discomfort” value ([8]; single 60 mg dose, N = 6)?
A: 0

Q: And the “Treatment Emergent AE: Malaise” value ([8]; single 60 mg dose, N = 6)?
A: 0

Q: What about the “Treatment Emergent AE: Nausea” value ([8]; single 60 mg dose, N = 6) of the same compound?
A: 0

Q: And the “Treatment Emergent AE: Oropharyngeal Pain” value ([8]; single 60 mg dose, N = 6)?
A: 0

Q: What about the “Treatment Emergent AE: Pseudoparalysis” value ([8]; single 60 mg dose, N = 6) of the same compound?
A: 0

Q: And the “Treatment Emergent AE: Respiratory, Thoracic and Mediastinal Disorders” value ([8]; single 60 mg dose, N = 6)?
A: 0

Q: And the “Treatment Emergent AE: Rhinorrhoea” value ([8]; single 60 mg dose, N = 6)?
A: 0

Q: What about the “Treatment Emergent AE: Skin Discomfort” value ([8]; single 60 mg dose, N = 6) of the same compound?
A: 0

Q: What about the “Treatment Emergent AE: Skin Irritation” value ([8]; single 60 mg dose, N = 6) of the same compound?
A: 0

Q: What about the “Treatment Emergent AE: Skin and Subcutaneous Tissue Disorders” value ([8]; single 60 mg dose, N = 6) of the same compound?
A: 0

Q: And the “Treatment Emergent AE: Somnoience” value ([8]; single 60 mg dose, N = 6)?
A: 0

Q: And the “Treatment Emergent AE: Tinnitus” value ([8]; single 60 mg dose, N = 6)?
A: 0

Q: And the “Treatment Emergent AE: Tremor” value ([8]; single 60 mg dose, N = 6)?
A: 0

Q: And the “Treatment Emergent AE: Urinary Tract Infection” value ([8]; single 60 mg dose, N = 6)?
A: 0

Q: What about the “Treatment Emergent AE: Vomiting” value ([8]; single 60 mg dose, N = 6) of the same compound?
A: 0

Q: What about the “Treatment Emergent AE: Back Pain” value ([8]; single 120 mg dose, N = 6) of the same compound?
A: 0

Q: And the “Treatment Emergent AE: Catheter Site Infection” value ([8]; single 120 mg dose, N = 6)?
A: 0

Q: What about the “Treatment Emergent AE: Catheter Site Related Reaction” value ([8]; single 120 mg dose, N = 6) of the same compound?
A: 0

Q: What about the “Treatment Emergent AE: Depressed Mood” value ([8]; single 120 mg dose, N = 6) of the same compound?
A: 0

Q: And the “Treatment Emergent AE: Dry Eye” value ([8]; single 120 mg dose, N = 6)?
A: 0

Q: What about the “Treatment Emergent AE: Dyspepsia” value ([8]; single 120 mg dose, N = 6) of the same compound?
A: 0

Q: What about the “Treatment Emergent AE: Euphoric Mood” value ([8]; single 120 mg dose, N = 6) of the same compound?
A: 0

Q: And the “Treatment Emergent AE: Limb Discomfort” value ([8]; single 120 mg dose, N = 6)?
A: 0

Q: What about the “Treatment Emergent AE: Malaise” value ([8]; single 120 mg dose, N = 6) of the same compound?
A: 0

Q: What about the “Treatment Emergent AE: Musculoskeletal and Connective Tissue Disorders” value ([8]; single 120 mg dose, N = 6) of the same compound?
A: 0

Q: What about the “Treatment Emergent AE: Psychiatric Disorders” value ([8]; single 120 mg dose, N = 6) of the same compound?
A: 0

Q: And the “Treatment Emergent AE: Somnoience” value ([8]; single 120 mg dose, N = 6)?
A: 0

Q: What about the “Treatment Emergent AE: Urinary Tract Infection” value ([8]; single 120 mg dose, N = 6) of the same compound?
A: 0

Q: And the “Treatment Emergent AE: Catheter Site Infection” value ([8]; single 180 mg dose, N = 6)?
A: 0

Q: And the “Treatment Emergent AE: Catheter Site Pain” value ([8]; single 180 mg dose, N = 6)?
A: 0

Q: And the “Treatment Emergent AE: Depressed Mood” value ([8]; single 180 mg dose, N = 6)?
A: 0

Q: And the “Treatment Emergent AE: Diarrhoea” value ([8]; single 180 mg dose, N = 6)?
A: 0

Q: What about the “Treatment Emergent AE: Dry Eye” value ([8]; single 180 mg dose, N = 6) of the same compound?
A: 0

Q: What about the “Treatment Emergent AE: Dyspepsia” value ([8]; single 180 mg dose, N = 6) of the same compound?
A: 0

Q: What about the “Treatment Emergent AE: Ear and Labyrinth Disorders” value ([8]; single 180 mg dose, N = 6) of the same compound?
A: 0

Q: What about the “Treatment Emergent AE: Epistaxis” value ([8]; single 180 mg dose, N = 6) of the same compound?
A: 0

Q: What about the “Treatment Emergent AE: Euphoric Mood” value ([8]; single 180 mg dose, N = 6) of the same compound?
A: 0

Q: What about the “Treatment Emergent AE: Hyperaesthesia” value ([8]; single 180 mg dose, N = 6) of the same compound?
A: 0

Q: What about the “Treatment Emergent AE: Malaise” value ([8]; single 180 mg dose, N = 6) of the same compound?
A: 0

Q: And the “Treatment Emergent AE: Oropharyngeal Pain” value ([8]; single 180 mg dose, N = 6)?
A: 0

Q: And the “Treatment Emergent AE: Pseudoparalysis” value ([8]; single 180 mg dose, N = 6)?
A: 0

Q: And the “Treatment Emergent AE: Psychiatric Disorders” value ([8]; single 180 mg dose, N = 6)?
A: 0

Q: And the “Treatment Emergent AE: Respiratory, Thoracic and Mediastinal Disorders” value ([8]; single 180 mg dose, N = 6)?
A: 0

Q: And the “Treatment Emergent AE: Rhinorrhoea” value ([8]; single 180 mg dose, N = 6)?
A: 0

Q: And the “Treatment Emergent AE: Skin Discomfort” value ([8]; single 180 mg dose, N = 6)?
A: 0

Q: And the “Treatment Emergent AE: Skin Irritation” value ([8]; single 180 mg dose, N = 6)?
A: 0

Q: And the “Treatment Emergent AE: Skin and Subcutaneous Tissue Disorders” value ([8]; single 180 mg dose, N = 6)?
A: 0

Q: What about the “Treatment Emergent AE: Somnoience” value ([8]; single 180 mg dose, N = 6) of the same compound?
A: 0

Q: And the “Treatment Emergent AE: Tinnitus” value ([8]; single 180 mg dose, N = 6)?
A: 0

Q: What about the “Treatment Emergent AE: Tremor” value ([8]; single 180 mg dose, N = 6) of the same compound?
A: 0
